US20250215012A1, “IKZF2 DEGRADERS AND USES THEREOF” (REGENTS OF THE UNIVERSITY OF MICHIGAN, priority 2022, published 2025)

Molecular target: IKZF2 (Homo sapiens (Human), UniProt Q96SW2+Q9UKS7)
Experiment: IKZF2 HiBiT Assay (Jurkat-IKZF2-HiBiT cell line)
Format: cell-based
Details: Jurkat-IKZF2-HiBiT cells, 24 hours; for DC50: read-out: HiBit assay degradation analysis DC50; for Dmax: read-out: HiBit assay degradation analysis Dmax
How it was run: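 IKZF2 degradation was assessed as HiBiT luminescence in Jurkat-IKZF2-HiBiT cells, using lytic detection after 24 h of compound treatment at 37 °C, 5% CO2.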

IKZF2, sequence (Q9UKS7 whole entry): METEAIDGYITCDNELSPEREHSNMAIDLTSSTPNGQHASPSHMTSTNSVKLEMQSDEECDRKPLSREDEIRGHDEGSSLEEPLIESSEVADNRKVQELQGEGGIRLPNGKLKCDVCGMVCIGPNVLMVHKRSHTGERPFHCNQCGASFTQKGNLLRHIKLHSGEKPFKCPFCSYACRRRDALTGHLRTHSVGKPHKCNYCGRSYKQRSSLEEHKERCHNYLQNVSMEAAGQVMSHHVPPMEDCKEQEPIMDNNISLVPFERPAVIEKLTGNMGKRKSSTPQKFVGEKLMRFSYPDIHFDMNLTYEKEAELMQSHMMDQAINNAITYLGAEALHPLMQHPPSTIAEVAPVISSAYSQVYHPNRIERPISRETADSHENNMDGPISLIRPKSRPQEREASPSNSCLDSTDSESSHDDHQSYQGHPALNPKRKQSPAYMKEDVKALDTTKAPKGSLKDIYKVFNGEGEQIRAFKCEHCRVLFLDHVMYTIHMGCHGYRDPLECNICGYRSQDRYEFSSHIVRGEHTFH
IKZF2, sequence (Q96SW2 whole entry): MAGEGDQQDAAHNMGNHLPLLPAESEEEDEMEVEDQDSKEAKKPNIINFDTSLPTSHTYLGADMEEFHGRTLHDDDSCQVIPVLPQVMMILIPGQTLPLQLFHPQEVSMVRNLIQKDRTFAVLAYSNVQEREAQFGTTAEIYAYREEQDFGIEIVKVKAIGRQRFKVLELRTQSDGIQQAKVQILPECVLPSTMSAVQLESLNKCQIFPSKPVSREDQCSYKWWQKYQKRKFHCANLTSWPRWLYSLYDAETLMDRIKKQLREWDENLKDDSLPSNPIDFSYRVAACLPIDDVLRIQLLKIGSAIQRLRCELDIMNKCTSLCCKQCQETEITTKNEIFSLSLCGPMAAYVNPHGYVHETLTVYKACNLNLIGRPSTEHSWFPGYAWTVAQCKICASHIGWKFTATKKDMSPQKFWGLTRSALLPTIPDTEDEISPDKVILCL
IKZF2, sequence (Q16531 whole entry partner): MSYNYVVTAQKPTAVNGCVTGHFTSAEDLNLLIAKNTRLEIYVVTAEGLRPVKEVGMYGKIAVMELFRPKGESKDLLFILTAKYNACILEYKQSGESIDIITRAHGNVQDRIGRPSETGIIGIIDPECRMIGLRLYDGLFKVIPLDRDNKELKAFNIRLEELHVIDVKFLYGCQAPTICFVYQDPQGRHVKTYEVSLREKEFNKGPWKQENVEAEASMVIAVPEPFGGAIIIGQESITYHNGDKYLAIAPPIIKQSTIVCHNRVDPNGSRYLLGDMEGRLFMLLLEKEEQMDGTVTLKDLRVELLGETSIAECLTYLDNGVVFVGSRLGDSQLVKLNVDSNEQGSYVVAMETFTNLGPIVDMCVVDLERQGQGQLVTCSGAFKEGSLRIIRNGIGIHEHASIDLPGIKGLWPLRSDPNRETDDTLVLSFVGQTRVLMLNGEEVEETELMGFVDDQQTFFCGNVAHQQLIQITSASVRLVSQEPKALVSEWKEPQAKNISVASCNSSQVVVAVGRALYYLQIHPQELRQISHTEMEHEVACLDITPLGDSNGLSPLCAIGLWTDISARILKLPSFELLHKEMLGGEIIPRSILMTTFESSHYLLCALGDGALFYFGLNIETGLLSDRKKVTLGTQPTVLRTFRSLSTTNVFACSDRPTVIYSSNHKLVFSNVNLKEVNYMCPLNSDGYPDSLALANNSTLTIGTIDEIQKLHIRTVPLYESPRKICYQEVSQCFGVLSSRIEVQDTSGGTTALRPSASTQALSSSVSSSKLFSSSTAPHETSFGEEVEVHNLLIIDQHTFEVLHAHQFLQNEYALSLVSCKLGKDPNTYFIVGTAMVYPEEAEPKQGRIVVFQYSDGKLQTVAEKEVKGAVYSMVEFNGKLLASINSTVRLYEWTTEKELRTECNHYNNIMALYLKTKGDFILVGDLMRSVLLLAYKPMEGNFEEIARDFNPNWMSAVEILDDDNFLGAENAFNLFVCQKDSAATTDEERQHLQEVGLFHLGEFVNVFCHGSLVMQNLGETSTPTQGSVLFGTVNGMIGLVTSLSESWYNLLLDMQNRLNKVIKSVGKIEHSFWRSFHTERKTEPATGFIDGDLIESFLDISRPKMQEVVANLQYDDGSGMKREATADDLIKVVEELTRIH

O=C1CCC(N2Cc3c(ccc4c3OCC43CCN(Cc4cccn5nccc45)CC3)C2=O)C(=O)N1 (stereo not shown) [Compound A58, 3-(6-oxo-1′-(pyrazolo[1,5-a]pyridin-4-ylmethyl)-6,8-dihydro-2H,7H-spiro[furo[2,3-e]isoindole-3,4′-piperidin]-7-yl)piperidine-2,6-dione]
DC50: > 500 nM
Dmax: 40 to 60%

O=C1CCC(N2Cc3c(ccc4c3OCC43CCN(CC4CCC(c5ccccc5)CC4)CC3)C2=O)C(=O)N1 (stereo not shown) [Compound A89, 3-(6-oxo-1′-((4-phenylcyclohexyl)methyl)-6,8-dihydro-2H,7H-spiro[furo[2,3-e]isoindole-3,4′-piperidin]-7-yl)piperidine-2,6-dione]
DC50: 50 to 200 nM
Dmax: 60 to 80%

COc1ccc(CN2CCC3(CC2)COc2c3ccc3c2CN(C2CCC(=O)NC2=O)C3=O)cc1 (stereo not shown) [Compound A211, 3-(1′-(4-methoxybenzyl)-6-oxo-6,8-dihydro-2H,7H-spiro[furo[2,3-e]isoindole-3,4′-piperidin]-7-yl)piperidine-2,6-dione]
DC50: > 500 nM
Dmax: < 40%

CC(C)(C)c1cccc(CN2CCC3(CC2)COc2c3ccc3c2CN(C2CCC(=O)NC2=O)C3=O)c1 (stereo not shown) [Compound A88, 3-(1′-(3-(tert-butyl)benzyl)-6-oxo-6,8-dihydro-2H,7H-spiro[furo[2,3-e]isoindole-3,4′-piperidin]-7-yl)piperidine-2,6-dione]
DC50: > 500 nM
Dmax: < 40%

CC1(C)Cc2c(CN3CCC4(CC3)COc3c4ccc4c3CN(C3CCC(=O)NC3=O)C4=O)cccc2O1 (stereo not shown) [Compound A326, 3-(1′-((2,2-dimethyl-2,3-dihydrobenzofuran-4-yl)methyl)-6-oxo-6,8-dihydro-2H,7H-spiro[furo[2,3-e]isoindole-3,4′-piperidin]-7-yl)piperidine-2,6-dione]
DC50: > 500 nM
Dmax: 40 to 60%

O=C1CCC(N2Cc3c(ccc4c3OCC43CCN(Cc4coc(-c5ccccc5)n4)CC3)C2=O)C(=O)N1 (stereo not shown) [Compound A83, 3-(6-oxo-1′-((2-phenyloxazol-4-yl)methyl)-6,8-dihydro-2H,7H-spiro[furo[2,3-e]isoindole-3,4′-piperidin]-7-yl)piperidine-2,6-dione]
DC50: > 500 nM
Dmax: < 40%

O=C1CCC(N2Cc3c(ccc4c3OCC43CCN(Cc4cnc5c(c4)CCCC5)CC3)C2=O)C(=O)N1 (stereo not shown) [Compound A325, 3-(6-oxo-1′-((5,6,7,8-tetrahydroquinolin-3-yl)methyl)-6,8-dihydro-2H,7H-spiro[furo [2,3-e]isoindole-3,4′-piperidin]-7-yl)piperidine-2,6-dione]
DC50: > 500 nM
Dmax: < 40%

CC(C)n1cc(-c2cccc(CN3CCC4(CC3)COc3c4ccc4c3CN(C3CCC(=O)NC3=O)C4=O)c2)cn1 (stereo not shown) [Compound A146, 3-(1′-(3-(1-isopropyl-1H-pyrazol-4-yl)benzyl)-6-oxo-6,8-dihydro-2H,7H-spiro[furo[2,3-e]isoindole-3,4′-piperidin]-7-yl)piperidine-2,6-dione]
DC50: < 50 nM
Dmax: 60 to 80%

O=C1CCC(N2Cc3c(ccc4c3OCC43CCN(Cc4cnn(-c5ccc(Cl)cc5)c4)CC3)C2=O)C(=O)N1 (stereo not shown) [Compound A314, 3-(1′-((1-(4-chlorophenyl)-1H-pyrazol-4-yl)methyl)-6-oxo-6,8-dihydro-2H,7H-spiro[furo[2,3-e]isoindole-3,4′-piperidin]-7-yl)piperidine-2,6-dione]
DC50: < 50 nM
Dmax: 60 to 80%

COc1cc(CN2CCC3(CC2)COc2c3ccc3c2CN([C@H]2CCC(=O)NC2=O)C3=O)cc(-c2cnn(C)c2)c1 [Compound A280, (S)-3-(1′-(3-methoxy-5-(1-methyl-1H-pyrazol-4-yl)benzyl)-6-oxo-6,8-dihydro-2H,7H-spiro[furo[2,3-e]isoindole-3,4′-piperidin]-7-yl)piperidine-2,6-dione]
DC50: < 50 nM
Dmax: > 80%

O=C1CCC(N2Cc3c(ccc4c3OCC43CCN(Cc4cccc5c(F)cccc45)CC3)C2=O)C(=O)N1 (stereo not shown) [Compound A35, 3-(1′-((5-fluoronaphthalen-1-yl)methyl)-6-oxo-6,8-dihydro-2H,7H-spiro[furo[2,3-e]isoindole-3,4′-piperidin]-7-yl)piperidine-2,6-dione]
DC50: < 50 nM
Dmax: > 80%

O=C1CCC(N2Cc3c(ccc4c3OCC43CCN(Cc4ccc5c(c4)OC(F)(F)O5)CC3)C2=O)C(=O)N1 (stereo not shown) [Compound A193, 3-(1′-((2,2-difluorobenzo[d][1,3]dioxol-5-yl)methyl)-6-oxo-6,8-dihydro-2H,7H-spiro[furo[2,3-e]isoindole-3,4′-piperidin]-7-yl)piperidine-2,6-dione]
DC50: > 500 nM
Dmax: < 40%

Cc1cc2c(CN3CCC4(CC3)COc3c4ccc4c3CN(C3CCC(=O)NC3=O)C4=O)cccc2[nH]1 (stereo not shown) [Compound A121, 3-(1′-((2-methyl-1H-indol-4-yl)methyl)-6-oxo-6,8-dihydro-2H,7H-spiro[furo[2,3-e]isoindole-3,4′-piperidin]-7-yl)piperidine-2,6-dione]
DC50: < 50 nM
Dmax: 60 to 80%

O=C1CCC(N2Cc3c(ccc4c3OCC43CCN(Cc4ccc(Cl)cc4)CC3)C2=O)C(=O)N1 (stereo not shown) [Compound A32]
DC50: > 500 nM
Dmax: < 40%

O=C1CCC(N2Cc3c(ccc4c3OCC43CCN(Cc4cccc5c4OCCO5)CC3)C2=O)C(=O)N1 (stereo not shown) [Compound A199, 3-(1′-((2,3-dihydrobenzo[b][1,4]dioxin-5-yl)methyl)-6-oxo-6,8-dihydro-2H,7H-spiro[furo[2,3-e]isoindole-3,4′-piperidin]-7-yl)piperidine-2,6-dione]
DC50: > 500 nM
Dmax: 60 to 80%

Cn1ncc2ccc(CN3CCC4(CC3)COc3c4ccc4c3CN(C3CCC(=O)NC3=O)C4=O)cc21 (stereo not shown) [Compound A57, 3-(1′-((1-methyl-1H-indazol-6-yl)methyl)-6-oxo-6,8-dihydro-2H,7H-spiro[furo[2,3-e]isoindole-3,4′-piperidin]-7-yl)piperidine-2,6-dione]
DC50: 50 to 200 nM
Dmax: 60 to 80%

O=C1CCC(N2Cc3c(ccc4c3OCC43CCN(Cc4ccn(-c5ccccc5F)n4)CC3)C2=O)C(=O)N1 (stereo not shown) [Compound A323, 3-(1′-((1-(2-fluorophenyl)-1H-pyrazol-3-yl)methyl)-6-oxo-6,8-dihydro-2H,7H-spiro[furo[2,3-e]isoindole-3,4′-piperidin]-7-yl)piperidine-2,6-dione]
DC50: > 500 nM
Dmax: < 40%

Cc1ccc(C(=O)Nc2cccc(CN3CCC4(CC3)OCc3c4ccc4c3CN(C3CCC(=O)NC3=O)C4=O)c2)cc1 (stereo not shown) [Compound A263, N-(3-((7-(2,6-dioxopiperidin-3-yl)-6-oxo-1,6,7,8-tetrahydrospiro[furo[3,4-e]isoindole-3,4′-piperidin]-1′-yl)methyl)phenyl)-4-methylbenzamide]
DC50: < 50 nM
Dmax: 60 to 80%

O=C1CCC(N2Cc3c(ccc4c3OCC43CCN(Cc4cccc(Oc5ccccn5)c4)CC3)C2=O)C(=O)N1 (stereo not shown) [Compound A101, 3-(6-oxo-1′-(3-(pyridin-2-yloxy)benzyl)-6,8-dihydro-2H,7H-spiro[furo[2,3-e]isoindole-3,4′-piperidin]-7-yl)piperidine-2,6-dione]
DC50: < 50 nM
Dmax: 60 to 80%

COc1ncc(CN2CCC3(CC2)COc2c3ccc3c2CN(C2CCC(=O)NC2=O)C3=O)cn1 (stereo not shown) [Compound A26, 3-(1′-((2-methoxypyrimidin-5-yl)methyl)-6-oxo-6,8-dihydro-2H,7H-spiro[furo[2,3-e]isoindole-3,4′-piperidin]-7-yl)piperidine-2,6-dione]
DC50: > 500 nM
Dmax: < 40%

O=C1CCC(N2Cc3c(ccc4c3OCC43CCN(Cc4cccc(NC(=O)c5ccc(Cl)cc5)c4)CC3)C2=O)C(=O)N1 (stereo not shown) [Compound A178, 4-chloro-N-(3-((7-(2,6-dioxopiperidin-3-yl)-6-oxo-7,8-dihydro-2H,6H-spiro[furo[2,3-e]isoindole-3,4′-piperidin]-1′-yl)methyl)phenyl)benzamide]
DC50: < 50 nM
Dmax: > 80%

Cn1ncc2cc(CN3CCC4(CC3)COc3c4ccc4c3CN(C3CCC(=O)NC3=O)C4=O)ccc21 (stereo not shown) [Compound A217, 3-(1′-((1-methyl-1H-indazol-5-yl)methyl)-6-oxo-6,8-dihydro-2H,7H-spiro[furo[2,3-e]isoindole-3,4′-piperidin]-7-yl)piperidine-2,6-dione]
DC50: > 500 nM
Dmax: < 40%

O=C1CCC(N2Cc3c(ccc4c3OCC43CCN(CC4CCC(F)(F)CC4)CC3)C2=O)C(=O)N1 (stereo not shown) [Compound A17, 3-(1′-((4,4-difluorocyclohexyl)methyl)-6-oxo-6,8-dihydro-2H,7H-spiro[furo[2,3-e]isoindole-3,4′-piperidin]-7-yl)piperidine-2,6-dione]
DC50: > 500 nM
Dmax: 40 to 60%

O=C1CCC(N2Cc3c(ccc4c3OCC43CCN(Cc4cccc(N5CCCC5)c4)CC3)C2=O)C(=O)N1 (stereo not shown) [Compound A96, 3-(6-oxo-1′-(3-(pyrrolidin-1-yl)benzyl)-6,8-dihydro-2H,7H-spiro[furo[2,3-e]isoindole-3,4′-piperidin]-7-yl)piperidine-2,6-dione]
DC50: 50 to 200 nM
Dmax: 60 to 80%

Cn1ncc2cccc(CN3CCC4(CC3)COc3c4ccc4c3CN(C3CCC(=O)NC3=O)C4=O)c21 (stereo not shown) [Compound A53, 3-(1′-((1-methyl-1H-indazol-7-yl)methyl)-6-oxo-6,8-dihydro-2H,7H-spiro[furo[2,3-e]isoindole-3,4′-piperidin]-7-yl)piperidine-2,6-dione]
DC50: > 500 nM
Dmax: 40 to 60%

O=C1CCC(N2Cc3c(ccc4c3OCC43CCN(Cc4ccc5ccccc5c4)CC3)C2=O)C(=O)N1 (stereo not shown) [Compound A34, 3-(1′-(naphthalen-2-ylmethyl)-6-oxo-6,8-dihydro-2H,7H-spiro[furo[2,3-e]isoindole-3,4′-piperidin]-7-yl)piperidine-2,6-dione]
DC50: < 50 nM
Dmax: 60 to 80%
